# From US8541543B2, “Peptides specific for hepatocellular carcinoma cells and applications thereof” (Academia Sinica, priority 2007, dated 2013)
# Experiments:
# advanced HCC = conditions: HCC (ref 36); cited from earlier work
# [1] = system: Mahlavu-derived HCC xenografts; experiment: In vivo peptide competitive inhibition of PC94 tumor binding; design: species or system SCID mice; conditions: 100 μg peptide co-injected with PC94, FIG. 3B
# Experimental: (§1) SCID mice (4-6 weeks old) were injected subcutaneously (s.c.) into the dorsal-lateral flank with 5×10^6 Mahlavu cells. Mice bearing Mahlavu-derived xenografts (500 mm^3) were injected intravenously (i.v.) with 2×10^9 pfu of PC94 or control phage. After perfusion, the organs (brain, heart, and lungs) and tumor tissue were removed, washed with cold PBS and weighed. The phage bound to the tumor tissue and organs were rescued by Escherichia coli ER2738 culture. The eluted phage particles were titrated on LB/IPTG/X-Gal plates. In peptide competitive inhibition experiments, 2×10^9 pfu of PC94 phage was co-injected with 100 μg of SP94 peptide or the control peptide. The tissue distribution of targeting phages in the tumor-bearing mice was examined by immunohistochemical staining. The tissue sections were incubated with mouse anti-M13 antibody, followed by incubation with biotinylated horse anti-mouse antibody (ABC kit; Vector Laboratories, Burlingame, Calif., USA) and washed with PBS, then immersed with ABC reagent. The sections were immersed in DAB solution plus 0.01% hydrogen peroxide, washed with PBS and mounted with 50% glycerol in PBS.
# [2] = system: Mahlavu-derived HCC xenografts; experiment: Immunohistochemical tissue distribution of targeting phages in tumor-bearing mice; format: in vivo, SCID mice; conditions: FIG. 3C, j
# Experimental: as §1
compound,measurement,setting,value
COc1cccc2c1C(=O)c1c(O)c3c(c(O)c1C2=O)C[C@@](O)(C(=O)CO)C[C@@H]3O[C@H]1C[C@H](N)[C@H](O)[C@H](C)O1 [doxorubicin],overall response rate,advanced HCC,18%
FPWFPLPSPYGN [control peptide],inhibition of PC94 binding to tumor tissue,[1],no such inhibitory effect
SFSIIHTPILPL [SP94],immuno-reactivity of tumor tissue when PC94 co-injected with peptide,[2],no immuno-reactivity was found in the tumor tissue
